Laboratory results from paper PMC4438668, “Quantitative High-Throughput Identification of Drugs as Modulators of Human Constitutive Androstane Receptor” (Scientific Reports, 2015).
“Also recorded” adds a separate entry of the source.

Experiments:
[1] = test system: CYP3A4; experiment: CYP3A4 mRNA expression in HPH (real-time PCR); format: cell-based, human; details: HPH, 24 h, vs vehicle control (0.1% DMSO)
Description: (§1) HPH were isolated from human liver specimens by a modification of the two-step collagenase digestion method as described previously[43] or obtained from Bioreclamation In Vitro Technologies (Baltimore, MD). Fresh HPH were seeded at 1.5 × 10^6, 7.5 × 10^5 or 4.7 × 10^4 cells/well in 6-well, 12-well, or 96-well collagen coated plates, respectively. Hepatocytes were cultured for 36 h at 37 °C before treatment with specified compounds for another 24 or 72 h for detection of mRNA or protein expression in the 6-well and 12-well plates.
(§2) Total RNA was isolated from treated hepatocytes using the TRIzol® reagent and reverse transcribed using a High Capacity cDNA Archive Kit (Applied Biosystems, Foster City, CA) following the manufacturers’ instructions. CYP2B6 and CYP3A4 mRNA expression were normalized against that of GAPDH. Real-time PCR assays were performed in 96-well optical plates on an ABI Prism 7000 Sequence Detection System with SYBR Green PCR Master Mix. […] Induction values were calculated using the equation: Fold = 2ΔΔCt, where ΔCt represents the differences in cycle threshold numbers between CYP2B6 or CYP3A4 and GAPDH, and ΔΔCt represents the relative change in these differences between control and treatment groups.

[2] = test system: CYP2B6; experiment: CYP2B6 mRNA expression in HPH (real-time PCR); details: HPH, 24 h, vs vehicle control (0.1% DMSO)
Description: as §1, §2

[3] = biological target: T1, human CAR (hCAR) (Homo sapiens, UniProt Q14994); experiment: hCAR luciferase reporter qHTS, agonist mode (HepG2-CYP2B6-hCAR cells, PK11195 co-treatment); details: for EC50 / Follow-up Confirmation Efficacy / Primary Screen Efficacy: agonist mode; for Follow-up Confirmation Efficacy: relative to CITCO (100%); for Primary Screen Efficacy: relative to CITCO Emax (100%)
T1 sequence (Q14994 1-348 isoform Q14994-2): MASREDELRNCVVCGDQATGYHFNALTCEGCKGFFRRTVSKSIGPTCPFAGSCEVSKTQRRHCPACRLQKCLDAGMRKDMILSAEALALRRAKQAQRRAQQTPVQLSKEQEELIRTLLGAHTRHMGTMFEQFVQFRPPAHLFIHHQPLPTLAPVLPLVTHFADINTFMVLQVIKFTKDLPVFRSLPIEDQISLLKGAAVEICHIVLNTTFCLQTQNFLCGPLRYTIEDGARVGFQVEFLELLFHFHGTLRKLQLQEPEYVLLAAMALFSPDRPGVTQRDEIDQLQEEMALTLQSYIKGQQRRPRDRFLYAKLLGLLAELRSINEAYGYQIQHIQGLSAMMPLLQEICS
Description: The generated stable cell line, namely HepG2-CYP2B6-hCAR, was used to identify hCAR modulators in a qHTS platform. Assays were run in both agonist and antagonist modes. In brief, HepG2-CYP2B6-hCAR cells were dispensed at 2,500 cells/well in 1,536-well plates (Greiner Bio-One North America, Monroe, NC) using a Multidrop Combi (Thermo Fisher Scientific Inc., Waltham, MA). […] Each NPC compound was tested at 8 concentrations ranging from 0.6 nM to 38.3 μM. The assays were incubated at 37 °C for 24 h followed by the addition of 4 μl of the ONE-Glo luciferase reagent (Promega, Madision, WI). The assay plates were incubated at room temperature for 20 min and luminescence intensity was quantified using a ViewLux plate reader (PerkinElmer, Shelton, CT).
(§3) Concentration-response titration points for each compound were then fitted to the Hill equation, yielding half-maximal inhibition (IC50) or activation (EC50) and maximal response (efficacy) values. Compounds from the primary qHTS screen were classified into four major curve classes according to quality of curve fit, potency and efficacy. Class 1.1, 1.2, 2.1, and 2.2 curves were high-quality and thus high-confidence concentration-response curves (CRCs). […] All other curve classes (including those curves with single point activity) were deemed inconclusive. […] Follow-up studies were performed using a new aliquot of samples to confirm sample integrity and assay reproducibility.
These compounds were prepared in 1536-well compound plates at 11-point 3-fold dilution titrations in DMSO, with final concentrations ranging from 0.6 nM to 38.3 μM. All of these compounds were retested in both HepG2-CYP2B6-hCAR and cell viability assays.

[4] = test system: HepG2-CYP2B6-hCAR cells; experiment: Cell viability assay (CellTiter-Glo ATP quantitation); format: cell-based, human; design: key to Cytotoxicity (activity call): Inactive: considered inactive if efficacy is less than 30%; details: 24 h
Description: The potential cytotoxicity of the NPC compounds in HepG2-CYP2B6-hCAR cells was measured using a luciferase-coupled ATP quantitation assay (CellTiter-Glo viability assay, Promega). The change of intracellular ATP content indicates the number of metabolically competent cells. The cells were seeded at 2,500 cells/5 μl in 1536-well plates and were exposed to each test compound at concentrations and treatment duration as previously mentioned. The assay plates were incubated for 24 h at 37 °C, followed by the addition of 4 μl/well of CellTiter-Glo reagent. After 30 min incubation at RT, the luminescence intensity of the plates was measured using a ViewLux plate reader.

[5] = biological target: T2, hPXR (Homo sapiens, UniProt O75469); experiment: Transient hPXR luciferase assay in HepG2 cells (CYP2B6-2.2 kb reporter); format: cell-based; details: HepG2, 24 h, in the presence or absence of rifampicin (10 μM)
T2 construct: expressed in transfected cells; host or cells: HepG2 (transient transfection)
T2 sequence (O75469 1-434): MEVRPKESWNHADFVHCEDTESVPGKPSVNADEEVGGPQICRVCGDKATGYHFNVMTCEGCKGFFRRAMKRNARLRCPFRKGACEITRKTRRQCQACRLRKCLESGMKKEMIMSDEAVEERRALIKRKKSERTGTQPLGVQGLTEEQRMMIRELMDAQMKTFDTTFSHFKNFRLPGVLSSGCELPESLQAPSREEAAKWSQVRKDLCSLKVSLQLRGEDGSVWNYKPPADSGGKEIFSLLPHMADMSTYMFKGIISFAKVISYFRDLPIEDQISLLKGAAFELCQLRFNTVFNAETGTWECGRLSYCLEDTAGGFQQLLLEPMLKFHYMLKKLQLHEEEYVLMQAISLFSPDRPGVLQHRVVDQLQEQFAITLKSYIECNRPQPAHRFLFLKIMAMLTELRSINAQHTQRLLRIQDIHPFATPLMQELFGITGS
Description: HepG2 cells cultured in a 24-well plate were co-transfected with the CYP2B6-2.2 kb reporter and hPXR expression vectors using a Lipofectamine® 2000 Transfection Kit (Life Technologies) following the manufacturer’s instruction. […] Cell lysates were assayed for firefly luciferase activities normalized against the activities of co-transfected Renilla luciferase using a Dual-Luciferase Kit (Promega). Data were represented as mean±SD of three individual transfections.

[6] = biological target: T1, human CAR (hCAR); experiment: hCAR luciferase reporter qHTS, antagonist mode (HepG2-CYP2B6-hCAR cells, CITCO co-treatment); details: for IC50 / Follow-up Confirmation Efficacy / Primary Screen Efficacy: antagonist mode; for Follow-up Confirmation Efficacy / Primary Screen Efficacy: relative to PK11195 (100%);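 for all read-outs here: stable HepG2 line carrying hCAR plus a CYP2B6 promoter (PBREM/XREM) luciferase reporter, 1536-well format, 24 h compound exposure at 37 °C, then luminescence read with ONE-Glo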
Description: The pEF6/V5-hCAR expression plasmid and the pGL4.17[luc2/Neo]-CYP2B6-2.2kb construct containing both the PBREM and XREM[40], were co-transfected in HepG2 cells using lipofectamine 2000 reagents (Life Technologies) following the manufacturer’s instruction. Dulbecco’s Modified Eagle Medium (DMEM) containing 10% FBS, 100 U/ml penicillin, 100 μg/ml streptomycin, G418 (0.6-1 mg/ml) and blasticidin (10 μg/ml) were used for the selection of colonies containing a mixed population of drug resistant cells. Subsequently, these cells were transferred to collagen-coated 48-well plates and continually cultured in the same media. Single colony containing both plasmids was selected and functionally verified.
The generated stable cell line, namely HepG2-CYP2B6-hCAR, was used to identify hCAR modulators in a qHTS platform. Assays were run in both agonist and antagonist modes. In brief, HepG2-CYP2B6-hCAR cells were dispensed at 2,500 cells/well in 1,536-well plates (Greiner Bio-One North America, Monroe, NC) using a Multidrop Combi (Thermo Fisher Scientific Inc., Waltham, MA). […] The assays were incubated at 37 °C for 24 h followed by the addition of 4 μl of the ONE-Glo luciferase reagent (Promega, Madision, WI). The assay plates were incubated at room temperature for 20 min and luminescence intensity was quantified using a ViewLux plate reader (PerkinElmer, Shelton, CT).
as §3
All of these compounds were retested in both HepG2-CYP2B6-hCAR and cell viability assays.

[7] = biological target: T3, EYFP-hCAR (Homo sapiens, UniProt Q14994); experiment: Nuclear translocation of Ad/EYFP-hCAR in human primary hepatocytes; format: cell-based; details: HPH, 1 mM
T3 construct: expressed in transfected cells; host or cells: human primary hepatocytes infected with Ad/EYFP-hCAR
T3 sequence (Q14994 1-348 isoform Q14994-2): T1 sequence (Q14994 1-348 isoform Q14994-2)
Description: A recombinant adenovirus expressing enhanced yellow fluorescent protein-tagged hCAR (Ad/EYFP-hCAR) was generated as described previously. Hepatocytes cultured in 96-well collagen-coated plates in serum free Williams’ E medium were infected with Ad/EFYP-hCAR (1 μl/well) for 12 h before treatment with the vehicle control, DMSO (0.1%), PB (1 mM), and selected compounds for another 8 h. Subcellular localization of hCAR was visualized using a Nikon (Tokyo, Japan) C1-LU3 instrument based on an inverted Nikon Eclipse TE2000 microscope.

[8] = Follow-up Confirmation Potency (EC50), follow-up cherry-pick, 11-point titration
[9] = Primary Screen Potency (EC50), primary qHTS, 2.5 μM PK11195, 24 h
[10] = Follow-up Confirmation Potency (IC50), follow-up cherry-pick, 11-point titration
[11] = Primary Screen Potency (IC50), primary qHTS, 0.1 μM CITCO, 24 h
[12] = primary qHTS of 2816 NPC compounds

**Q.** For `COc1cc(N)c(Cl)cc1C(=O)NC1CCN(Cc2ccccc2)CC1` [Clebopride], which “Effect on CYP3A4 mRNA expression” value [1] is on record?
**A.** markedly enhanced

**Q.** What about the “Effect on CYP2B6 mRNA expression” value [2] of the same molecule?
**A.** significantly induced; also recorded: potent induction exceeding that of CITCO

**Q.** What about the EC50 [3, 8] of the same molecule?
**A.** 9.4 µM

**Q.** What about the EC50 [3, 9] of the same molecule?
**A.** 7.6 µM

**Q.** And the “Follow-up Confirmation Efficacy” value ([3]; follow-up cherry-pick)?
**A.** 80%

**Q.** And the “Primary Screen Efficacy” value ([3]; primary qHTS)?
**A.** 52%

**Q.** For `Cc1c(O)cccc1C(=O)N[C@@H](CSc1ccccc1)[C@H](O)CN1C[C@H]2CCCC[C@H]2C[C@H]1C(=O)NC(C)(C)C` [Nelfinavir], which “Cytotoxicity (activity call)” value [4] is on record?
**A.** Inactive

**Q.** And the “Effect on CYP3A4 mRNA expression” value [1]?
**A.** negligible effect

**Q.** And the “Effect on basal and RIF-induced PXR activity” value [5]?
**A.** induced hPXR activation to an extent closer to that of RIF

**Q.** And the IC50 [6, 10]?
**A.** 11 µM

**Q.** And the IC50 [6, 11]?
**A.** 9.52 µM

**Q.** What about the “Follow-up Confirmation Efficacy” value ([6]; follow-up cherry-pick) of the same molecule?
**A.** -101%

**Q.** What about the “Primary Screen Efficacy” value ([6]; primary qHTS) of the same molecule?
**A.** -88%

**Q.** Which “Identified as hCAR antagonist/deactivator in the qHTS” value [6, 12] does the source give for `O=C1OC(c2ccc(O)cc2)(c2ccc(O)cc2)c2ccccc21` [phenolphthalein] here?
**A.** recognized in the current study

**Q.** `Clc1ccc(-c2nc3sccn3c2C=NOCc2ccc(Cl)c(Cl)c2)cc1` [CITCO, 6-(4-chlorophenyl) imidazo[2,1-b][1,3]-thiazole-5-carbaldehyde-O-(3,4-dichlorobenzyl)oxime] was tested. Which “Effect on hCAR activity (agonist mode optimization, Fig. 1A)” value ([3]; PK11195 at 2.5 μM and 5.0 μM, CITCO co-treated with PK11195) did it give?
**A.** restored the hCAR activity in a concentration-dependent manner

**Q.** What about the “Effect on hCAR activity (antagonist mode optimization, Fig. 4A)” value ([6]; PK11195 at varying concentrations, CITCO co-treatment at 75 nM, 100 nM, or 200 nM) of the same molecule?
**A.** moderate but concentration-dependent increase of the basal activity of hCAR

**Q.** For `COC(=O)Nc1nc2ccc(C(=O)c3cccs3)cc2[nH]1` [nocodazole], which “Identified as hCAR agonist in the qHTS” value [3, 12] is on record?
**A.** hCAR agonist from the current study

**Q.** With `CC(COc1ccccc1)N(CCCl)Cc1ccccc1` (stereo not drawn) [Phenoxybenzamine] as the molecule, how does the EC50 [3, 8] read?
**A.** 12 µM

**Q.** And the EC50 [3, 9]?
**A.** 9.5 µM

**Q.** And the “Follow-up Confirmation Efficacy” value ([3]; follow-up cherry-pick)?
**A.** 49%

**Q.** What about the “Primary Screen Efficacy” value ([3]; primary qHTS) of the same molecule?
**A.** 57%

**Q.** Which “Cytotoxicity (activity call)” value [4] does the source give for `C[C@H]1O[C@@H](O[C@H]2[C@@H](O)C[C@H](O[C@H]3[C@@H](O)C[C@H](O[C@H]4CC[C@@]5(C)[C@H](CC[C@@H]6[C@@H]5CC[C@]5(C)[C@@H](C7=CC(=O)OC7)CC[C@]65O)C4)O[C@@H]3C)O[C@@H]2C)C[C@H](O)[C@@H]1O` [Digitoxin] here?
**A.** Inactive

**Q.** What about the IC50 [6, 10] of the same molecule?
**A.** 0.29 µM

**Q.** And the IC50 [6, 11]?
**A.** 0.08 µM

**Q.** And the “Follow-up Confirmation Efficacy” value ([6]; follow-up cherry-pick)?
**A.** -98%

**Q.** What about the “Primary Screen Efficacy” value ([6]; primary qHTS) of the same molecule?
**A.** -76%

**Q.** `Clc1ccc(Nc2nnc(Cc3ccncc3)c3ccccc23)cc1` [Vatalanib] was tested. Which “Effect on CYP3A4 mRNA expression” value [1] did it give?
**A.** markedly enhanced

**Q.** What about the “Effect on CYP2B6 mRNA expression” value [2] of the same molecule?
**A.** significantly induced

**Q.** What about the EC50 [3, 8] of the same molecule?
**A.** 12.6 µM

**Q.** What about the EC50 [3, 9] of the same molecule?
**A.** 10.7 µM

**Q.** And the “Follow-up Confirmation Efficacy” value ([3]; follow-up cherry-pick)?
**A.** 97%

**Q.** What about the “Primary Screen Efficacy” value ([3]; primary qHTS) of the same molecule?
**A.** 68%

**Q.** How did the “Nuclear localization of EYFP-hCAR” value [7] turn out when `CCC1(c2ccccc2)C(=O)NC(=O)NC1=O` [PB, phenobarbital] was run?
**A.** 99%
